Measurements taken from PubChem BioAssay AID256 (DTP/NCI, 2004).
Toxic doses and inconclusive results are not listed. Rule for the calls: active = survival T/C of 150% or more; inactive = T/C below 125% in these data.

System: CD2F1 mice, L1210 leukemia ip, survival T/C
Experiment: NCI In Vivo Anticancer Drug Screen. Data for tumor model L1210 Leukemia (intraperitoneal) in CD2F1 (CDF1) mice
Conditions: higher = longer survival
Summary of the method: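 Activity against a transplanted murine tumor was judged by comparing the compound group with a vehicle group. The outcome in the treated animals was divided by that in the controls.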

[1] = endpoint: mean survival time, dose: 100.0 mg/kg/injection, schedule: Q01DX009 (ip), vehicle: saline with Tween-80
[2] = endpoint: mean survival time, dose: 100.0 mg/kg/injection, schedule: Q04DX003 (ip), vehicle: saline with Tween-80
[3] = endpoint: mean survival time, dose: 200.0 mg/kg/injection, schedule: Q04DX003 (ip), vehicle: saline with Tween-80
[4] = endpoint: mean survival time, dose: 400.0 mg/kg/injection, schedule: Q04DX003 (ip), vehicle: saline with Tween-80
[5] = endpoint: mean survival time, dose: 50.0 mg/kg/injection, schedule: Q01DX009 (ip), vehicle: Klucel (hydroxypropylcellulose) (HPC)
[6] = endpoint: mean survival time, dose: 100.0 mg/kg/injection, schedule: Q01DX009 (ip), vehicle: Klucel (hydroxypropylcellulose) (HPC)
[7] = endpoint: mean survival time, dose: 200.0 mg/kg/injection, schedule: Q01DX009 (ip), vehicle: Klucel (hydroxypropylcellulose) (HPC)
[8] = endpoint: mean survival time, dose: 100.0 mg/kg/injection, schedule: Q04DX002 (ip), vehicle: saline with Tween-80
[9] = endpoint: mean survival time, dose: 200.0 mg/kg/injection, schedule: Q04DX002 (ip), vehicle: saline with Tween-80
[10] = endpoint: mean survival time, dose: 400.0 mg/kg/injection, schedule: Q04DX002 (ip), vehicle: saline with Tween-80
[11] = endpoint: mean survival time, dose: 6.25 mg/kg/injection, schedule: Q04DX003 (ip), vehicle: saline
[12] = endpoint: mean survival time, dose: 100.0 mg/kg/injection, schedule: Q04DX003 (ip), vehicle: saline
[13] = endpoint: mean survival time, dose: 200.0 mg/kg/injection, schedule: Q04DX003 (ip), vehicle: saline

Measured: T/C

C1=C\C[n+]2ccccc2-c2cccc[n+]2C/1
inactive: endpoint: mean survival time, dose: 7.5 mg/kg/injection, schedule: Q01DX001 (ip), vehicle: saline 95 % of control | endpoint: mean survival time, dose: 7.5 mg/kg/injection, schedule: Q04DX003 (ip), vehicle: saline 96 % of control | endpoint: mean survival time, dose: 15.0 mg/kg/injection, schedule: Q01DX001 (ip), vehicle: saline 95 % of control | endpoint: mean survival time, dose: 15.0 mg/kg/injection, schedule: Q04DX003 (ip), vehicle: saline 97 % of control | endpoint: mean survival time, dose: 30.0 mg/kg/injection, schedule: Q01DX001 (ip), vehicle: saline 98 % of control

CCCCOCC(C)O (stereo not given)
inactive: endpoint: mean survival time, dose: 100.0 mg/kg/injection, schedule: Q01DX009 (ip), vehicle: saline 97 % of control | endpoint: mean survival time, dose: 200.0 mg/kg/injection, schedule: Q01DX009 (ip), vehicle: saline 101 % of control | endpoint: mean survival time, dose: 400.0 mg/kg/injection, schedule: Q01DX009 (ip), vehicle: saline 100 % of control

CC(C)(C)CC(C)(C)c1ccc(OCCOc2ccccc2NS(=O)(=O)c2ccc(N)cc2)cc1
inactive: endpoint: mean survival time, dose: 100.0 mg/kg/injection, schedule: Q01DX001 (ip), vehicle: Klucel (hydroxypropylcellulose) (HPC) 98 % of control | endpoint: mean survival time, dose: 200.0 mg/kg/injection, schedule: Q01DX001 (ip), vehicle: Klucel (hydroxypropylcellulose) (HPC) 96 % of control

O=S(=O)(F)c1cc(C[P+](c2ccccc2)(c2ccccc2)c2ccccc2)ccc1Cl
inactive: endpoint: mean survival time, dose: 6.25 mg/kg/injection, schedule: Q04DX003 (ip), vehicle: saline with Tween-80 104 % of control | endpoint: mean survival time, dose: 12.5 mg/kg/injection, schedule: Q04DX003 (ip), vehicle: saline with Tween-80 104 % of control | endpoint: mean survival time, dose: 25.0 mg/kg/injection, schedule: Q04DX003 (ip), vehicle: saline with Tween-80 116 % of control

CC1(C)CCC2(CC1)CC(=O)OC(=O)C2
inactive: endpoint: mean survival time, dose: 100.0 mg/kg/injection, schedule: Q01DX001 (ip), vehicle: saline with Tween-80 90 % of control | endpoint: mean survival time, dose: 200.0 mg/kg/injection, schedule: Q01DX001 (ip), vehicle: saline with Tween-80 87 % of control | endpoint: mean survival time, dose: 400.0 mg/kg/injection, schedule: Q01DX001 (ip), vehicle: saline with Tween-80 92 % of control

O=C(C[n+]1ccccc1)N/N=C/c1ccc(Cl)cc1
inactive: [1] 107 % of control

COc1ccc(Nc2ccccc2Cl)c(C(=O)O)c1
inactive: [2] 98 % of control | [3] 102 % of control | [4] 102 % of control

COc1ccc(NC(=O)N(CCO)c2ccccc2)c(Cl)c1
inactive: [5] 107 % of control | [6] 104 % of control | [7] 107 % of control

Cc1nc(C(=O)O)c(C)c(=O)[nH]1
inactive: endpoint: mean survival time, dose: 25.0 mg/kg/injection, schedule: Q01DX005 (ip), vehicle: water 98 % of control | endpoint: mean survival time, dose: 50.0 mg/kg/injection, schedule: Q01DX005 (ip), vehicle: water 104 % of control | endpoint: mean survival time, dose: 100.0 mg/kg/injection, schedule: Q01DX005 (ip), vehicle: water 89 % of control | endpoint: mean survival time, dose: 200.0 mg/kg/injection, schedule: Q01DX005 (ip), vehicle: water 87 % of control

Oc1cc(O)c2c(c1)O[C@H](c1ccc(O)c(O)c1)[C@@H](O)C2
inactive: endpoint: mean survival time, dose: 100.0 mg/kg/injection, schedule: Q01DX001 (ip), vehicle: saline 101 % of control | endpoint: mean survival time, dose: 200.0 mg/kg/injection, schedule: Q01DX001 (ip), vehicle: saline 101 % of control | endpoint: mean survival time, dose: 400.0 mg/kg/injection, schedule: Q01DX001 (ip), vehicle: saline 98 % of control

NCCc1c[nH]c2ccccc12 (tested in a mixture with another compound)
inactive: [2] 97 % of control | [3] 101 % of control | [4] 94 % of control

CC(O)C(=O)NN (stereo not given)
inactive: [1] 112 % of control | endpoint: mean survival time, dose: 200.0 mg/kg/injection, schedule: Q01DX009 (ip), vehicle: saline with Tween-80 116 % of control | endpoint: mean survival time, dose: 400.0 mg/kg/injection, schedule: Q01DX009 (ip), vehicle: saline with Tween-80 93 % of control

COc1cc2c(cc1OC)-c1nc(N)sc1CC2
inactive: [8] 107 % of control | [9] 98 % of control | [10] 103 % of control

COC1=C(C)C(=O)C2=C(C1=O)C(CO)N1C(C#N)C3CC4C(C1C2N1CCOC41)N3C (stereo not given)
inactive: endpoint: median survival time, dose: 0.12 mg/kg/injection, schedule: Q01DX005 (ip), vehicle: acid diluted with saline 102 % of control | endpoint: median survival time, dose: 0.12 mg/kg/injection, schedule: Q01DX009 (ip), vehicle: saline + alcohol 111 % of control | endpoint: median survival time, dose: 0.25 mg/kg/injection, schedule: Q01DX005 (ip), vehicle: acid diluted with saline 102 % of control | endpoint: median survival time, dose: 0.25 mg/kg/injection, schedule: Q01DX009 (ip), vehicle: saline + alcohol 113 % of control | endpoint: median survival time, dose: 0.5 mg/kg/injection, schedule: Q01DX005 (ip), vehicle: acid diluted with saline 105 % of control | endpoint: median survival time, dose: 0.5 mg/kg/injection, schedule: Q01DX009 (ip), vehicle: saline + alcohol 111 % of control | endpoint: median survival time, dose: 1.0 mg/kg/injection, schedule: Q01DX005 (ip), vehicle: acid diluted with saline 104 % of control | endpoint: median survival time, dose: 1.0 mg/kg/injection, schedule: Q01DX009 (ip), vehicle: saline + alcohol 108 % of control

Nc1nc(=O)n(C2OC(CO)C(O)C2O)c(=O)[nH]1 (stereo not given)
inactive: endpoint: mean survival time, dose: 3.12 mg/kg/injection, schedule: Q04DX003 (ip), vehicle: saline 108 % of control | [11] 97 % of control | endpoint: mean survival time, dose: 12.5 mg/kg/injection, schedule: Q04DX003 (ip), vehicle: saline 103 % of control | endpoint: mean survival time, dose: 25.0 mg/kg/injection, schedule: Q04DX003 (ip), vehicle: saline 95 % of control | endpoint: mean survival time, dose: 50.0 mg/kg/injection, schedule: Q04DX003 (ip), vehicle: saline 92 % of control | [12] 100 % of control | [13] 95 % of control

OCC1OC(n2cnc3c(SSc4ncnc5c4ncn5C4CC(O)C(CO)O4)ncnc32)CC1O (stereo not given)
inactive: endpoint: mean survival time, dose: 178.0 mg/kg/injection, schedule: Q01DX001 (ip), vehicle: saline 114 % of control

O=S1c2ccccc2-c2ccccc21
inactive: [8] 92 % of control | [9] 100 % of control | [10] 103 % of control

O=[N+]([O-])C=C(S)S
inactive: endpoint: mean survival time, dose: 25.0 mg/kg/injection, schedule: Q01DX009 (ip), vehicle: Klucel (hydroxypropylcellulose) (HPC) 111 % of control | [5] 98 % of control | [6] 93 % of control | [7] 90 % of control

Cc1cccnc1-n1c(N)cc(=O)[nH]c1=S
inactive: [2] 97 % of control | [3] 101 % of control | [4] 100 % of control

C1CC[N-]CC1.CC(=N\O)/C(C)=N/O.CC(=N\O)/C(C)=N/O.C[CH-]C(C)O.[Co+2]
inactive: [11] 97 % of control

O=S(=O)(O)SCc1ccccc1CSS(=O)(=O)O
inactive: [12] 96 % of control | [13] 101 % of control | endpoint: mean survival time, dose: 400.0 mg/kg/injection, schedule: Q04DX003 (ip), vehicle: saline 108 % of control

CC(O)c1ccc2c(c1)N(CCCN1CCN(CCO)CC1)c1ccccc1S2 (stereo not given)
inactive: [12] 97 % of control
